Assay results: patent publication US12290587B2, “Anti-aging cosmetic compositions” (GIVAUDAN SA, priority 2019, dated 2025)

System: Normal Human Dermal Fibroblasts
Experiment: Mitochondrial mass (MitoTracker Green FM) in Normal Human Dermal Fibroblasts
Type: cell-based
Settings: 20 mM, insulin 100 nM
Procedure: Normal Human Dermal Fibroblasts were isolated from skin biopsy coming from a breast reduction surgery on a person. 10′000 cells per well were seeded in a black 96-wells plate with DMEM (Dulbecco's Modified Eagle's Medium, Gibco) supplemented with 10% FCS (Fetal Calf Serum, Biowest) and 1% antibiotics (Sigma Aldrich) and were cultured for 72 hours in an incubator at 37° C. in a humid atmosphere containing 5% CO2. Cells were then rinsed two times with PBS (Phosphate Buffer Saline) before being incubated with FCS-free DMEM medium overnight in the same incubator. On the next day, the cells were treated with (i) mannose at 20 mM, (ii) mannose-6-phosphate at 20 mM or (iii) the above-mentioned Mannose-6-Phosphate complex at 20 mM (n=3) in the presence of insulin (100 nM). After 1 hour and 48 hours of treatment, MitoTracker™ Green FM (ThermoFisher) was added directly in each well for a final concentration of 200 nM and the plate was incubated in the dark in the incubator for 15 minutes. Cells were then rinsed off two times with PBS and each well was filled with 200 μl PBS. Fluorescence intensity of MitoTracker™ Green FM was measured with a microplate reader (Excitation wavelength: 488 nm/Emission wavelength: 525 nm). In this study, the mitochondrial mass in cells was determined using the fluorescence intensity emitted by MitoTracker™ Green FM.

## O=C[C@@H](O)[C@@H](O)[C@H](O)[C@H](O)COP(=O)(O)O [mannose-6-phosphate]
1 hour treatment
  decrease of MitoTracker Green FM specific signal (mitochondrial mass): −53%
48 hours of treatment
  decrease of MitoTracker Green FM specific signal (mitochondrial mass): −60%
